The record followed here is publication PMC6035319 (Saudi Pharmaceutical Journal : SPJ, 2018).

The target of one experiment is T1, CYP1A2 (Homo sapiens, UniProt P05177).
T1 sequence (P05177 2-516): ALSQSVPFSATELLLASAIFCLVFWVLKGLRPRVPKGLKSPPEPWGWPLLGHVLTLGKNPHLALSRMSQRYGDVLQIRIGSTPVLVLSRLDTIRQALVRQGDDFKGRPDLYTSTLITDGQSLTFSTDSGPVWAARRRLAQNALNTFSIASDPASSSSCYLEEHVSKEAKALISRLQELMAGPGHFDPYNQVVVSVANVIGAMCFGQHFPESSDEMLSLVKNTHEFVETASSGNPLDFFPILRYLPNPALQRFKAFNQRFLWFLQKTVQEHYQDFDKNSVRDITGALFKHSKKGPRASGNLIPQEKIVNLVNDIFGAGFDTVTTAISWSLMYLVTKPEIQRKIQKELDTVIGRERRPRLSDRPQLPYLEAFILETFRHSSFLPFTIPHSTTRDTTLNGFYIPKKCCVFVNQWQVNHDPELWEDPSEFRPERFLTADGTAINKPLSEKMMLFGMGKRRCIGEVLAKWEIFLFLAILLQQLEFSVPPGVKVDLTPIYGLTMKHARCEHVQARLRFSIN
The experiment is described as follows: HPLC of acetaminophen formed from phenacetin in pooled human liver microsomes. The class given is biochemical. For orientation: Liver microsomes are a subcellular fraction often used to study metabolism.

A further experiment has as its target CYP3A4 (Homo sapiens, UniProt P08684). It is filed as biochemical.

The structures appear in SMILES notation.

Chain of CYP3A4 (P08684 2-503): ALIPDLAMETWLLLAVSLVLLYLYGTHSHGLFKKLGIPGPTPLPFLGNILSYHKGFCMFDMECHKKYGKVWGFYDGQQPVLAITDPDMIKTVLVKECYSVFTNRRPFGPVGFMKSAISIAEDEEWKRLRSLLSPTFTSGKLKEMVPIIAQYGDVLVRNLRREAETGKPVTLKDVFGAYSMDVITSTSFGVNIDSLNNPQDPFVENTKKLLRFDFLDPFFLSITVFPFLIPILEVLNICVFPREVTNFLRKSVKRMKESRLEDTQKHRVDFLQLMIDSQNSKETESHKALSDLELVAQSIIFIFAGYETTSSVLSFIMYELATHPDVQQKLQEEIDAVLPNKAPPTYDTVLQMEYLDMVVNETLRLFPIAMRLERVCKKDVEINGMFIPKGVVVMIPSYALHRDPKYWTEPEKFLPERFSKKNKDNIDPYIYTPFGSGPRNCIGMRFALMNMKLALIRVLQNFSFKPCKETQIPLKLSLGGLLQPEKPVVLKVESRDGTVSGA

By IC50 is commonly meant the midpoint of a concentration-inhibition curve. A lower IC50 goes with greater potency in that assay. For the compound `CC1=CC(=O)C(C(C)C)=CC1=O` [thymoquinone], the half-maximal inhibitory concentration (IC50) at CYP1A2 was 26.5 ± 2.9 µM; at CYP3A4, 25.2 ± 3.1 µM.
